Our source for the DC50 values is US12077555B2, “STAT degraders and uses thereof” (Kymera Therapeutics, Inc., priority 2019, dated 2024).

Usually DC50 stands for the concentration giving 50% degradation.

The target in the assay is STAT3 (Homo sapiens, UniProt P40763). The assay can be described thus: STAT3 HiBiT degradation assay in transfected A549 cells. On the set-up: expressed in transfected cells; host or cells: A549. The format is cell-based. In outline: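 Transfected A549 cells (~2000/well) plated 24 h, then treated 24 h at 37 °C, 5% CO2 with a 3-fold, 10-point compound dilution. HiBiT lytic luminescence read after 10 min at room temperature; remaining STAT3 normalized to negative and positive controls, four-parameter fit. DC50 binned A <0.01, B 0.01–0.1, C 0.1–1.0, D >1.0 µM.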
A general note: HiBiT is a short tag that completes a luciferase, so light tracks the accessible tagged protein.

Where [1] appears, read: A549, 24 h; read-out: STAT3 HiBiT A549 degradation 24 h: Average external-Abs DC50.

Like-named read-outs stand apart in the source and are kept apart here.

Sequence of STAT3 (P40763 whole entry): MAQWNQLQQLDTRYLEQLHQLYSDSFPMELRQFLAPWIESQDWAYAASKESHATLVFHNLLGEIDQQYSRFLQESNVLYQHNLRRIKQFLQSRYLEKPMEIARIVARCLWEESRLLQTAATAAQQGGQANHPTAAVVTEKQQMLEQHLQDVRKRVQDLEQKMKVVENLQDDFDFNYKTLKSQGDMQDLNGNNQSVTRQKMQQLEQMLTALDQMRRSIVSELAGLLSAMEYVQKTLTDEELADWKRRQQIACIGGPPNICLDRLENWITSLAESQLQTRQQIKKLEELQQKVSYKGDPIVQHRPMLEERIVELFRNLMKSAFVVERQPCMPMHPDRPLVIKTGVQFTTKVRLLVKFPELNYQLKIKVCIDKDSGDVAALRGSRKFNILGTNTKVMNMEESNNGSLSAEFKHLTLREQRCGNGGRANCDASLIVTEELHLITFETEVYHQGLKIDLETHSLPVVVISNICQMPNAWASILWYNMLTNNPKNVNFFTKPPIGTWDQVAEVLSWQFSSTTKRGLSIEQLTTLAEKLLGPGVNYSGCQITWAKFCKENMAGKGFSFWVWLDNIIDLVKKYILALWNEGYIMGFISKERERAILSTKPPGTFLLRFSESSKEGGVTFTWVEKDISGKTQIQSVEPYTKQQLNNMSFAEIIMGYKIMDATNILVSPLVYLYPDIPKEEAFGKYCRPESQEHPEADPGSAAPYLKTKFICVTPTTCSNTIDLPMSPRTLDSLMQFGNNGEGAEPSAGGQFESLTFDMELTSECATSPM

Turning to `CN1C(=O)CCC(N2Cc3c(C#CCCCCCC(=O)N4CC[C@H]5CC[C@@H](C(=O)N[C@@H](CCC(N)=O)C(=O)NC(c6ccccc6)c6ccccc6)N5C(=O)[C@@H](NC(=O)c5cc6cc(C(=O)P(=O)(O)O)ccc6[nH]5)C4)cccc3C2=O)C1=O` (stereo in doubt) [Compound I-120, diammonium 2-[[(5S,8S,10aR)-8-[[(1S)-3-carbamoyl-1-(diphenylmethylcarbamoyl)propyl]carbamoyl]-3-[8-[2-(1-methyl-2,6-dioxopiperidin-3-yl)-1-oxo-3H-isoindol-4-yl]oct-7-ynoyl]-6-oxo-octahydropyrrolo[1,2-a][1,5]diazocin-5-yl]carbamoyl]-1H-indole-5-carbonylphosphonate], the DC50 (read-out: STAT3 HiBiT A549 degradation 24 h: Average external-Abs DC50; A549, 24 h) is more than 1000 nM.

With `CC(=O)N1CC[C@H]2CC[C@@H](C(=O)N[C@@H](CCC(N)=O)COc3cccc(CCCCC(=O)N[C@H](C(=O)N4C[C@H](O)C[C@H]4C(=O)N[C@@H](C)c4ccc(-c5scnc5C)cc4)C(C)(C)C)c3F)N2C(=O)[C@@H](NC(=O)c2cc3cc(C(=O)P(=O)(O)O)ccc3[nH]2)C1` [Compound I-263, 2-[[(5S,8S,10aR)-3-acetyl-8-[[(2S)-4-carbamoyl-1-[2-fluoro-3-(4-[[(2S)-1-[(2S,4R)-4-hydroxy-2-[[(1S)-1-[4-(4-methyl-1,3-thiazol-5-yl)phenyl]ethyl]carbamoyl]pyrrolidin-1-yl]-3,3-dimethyl-1-oxobutan-2-yl]carbamoyl]butyl)phenoxy]butan-2-yl]carbamoyl]-6-oxo-octahydropyrrolo[1,2-a][1,5]diazocin-5-yl]carbamoyl]-1H-indole-5-carbonylphosphonic acid], the DC50 under setting [1] is less than 10 nM.

On to `Cn1c(=O)n(C2CCC(=O)NC2=O)c2ccc(CC3CCC(CC(=O)N4CC[C@H]5CC[C@@H](C(=O)N[C@H](CCC(N)=O)C(=O)NCc6ccc(S(C)(=O)=O)cc6)N5C(=O)[C@@H](NC(=O)c5cc6cc(C(=O)P(=O)(O)O)ccc6[nH]5)C4)CC3)cc21` (stereo partly drawn) [Compound I-230, 2-[[(5S,8S,10aR)-8-[[(1R)-3-carbamoyl-1-[[(4-methanesulfonylphenyl)methyl]carbamoyl]propyl]carbamoyl]-6-oxo-3-[2-[(1S,4S)-4-[[1-(2,6-dioxopiperidin-3-yl)-3-methyl-2-oxo-1,3-benzodiazol-5-yl]methyl]cyclohexyl]acetyl]-octahydropyrrolo[1,2-a][1,5]diazocin-5-yl]carbamoyl]-1H-indole-5-carbonylphosphonic acid], for which the DC50 under setting [1] was more than 1000 nM.

Regarding `Cc1ncsc1-c1ccc(CNC(=O)[C@@H]2C[C@@H](O)CN2C(=O)[C@@H](NC(=O)CCCCCCCC(=O)N2CC[C@H]3CC[C@@H](C(=O)N[C@@H](CCC(N)=O)C(=O)NC(c4ccccc4)c4ccccc4)N3C(=O)[C@@H](NC(=O)c3cc4cc(C(=O)P(=O)(O)O)ccc4[nH]3)C2)C(C)(C)C)cc1` [Compound I-147], under setting [1], the DC50 is more than 1000 nM.

Turning to `Cc1ncsc1-c1ccc(CNC(=O)[C@@H]2C[C@@H](O)CN2C(=O)[C@@H](NC(=O)CCCc2ccc(CNC(=O)[C@H](CCC(N)=O)NC(=O)[C@@H]3Cc4cccc5c4N3C(=O)[C@@H](NC(=O)c3cc4cc(C(=O)P(=O)(O)O)ccc4[nH]3)CC5)cc2)C(C)(C)C)cc1` [Compound I-138], under setting [1], the DC50 was more than 1000 nM.

With `Cc1ncsc1-c1ccc(CNC(=O)[C@@H]2C[C@@H](O)CN2C(=O)[C@@H](NC(=O)CCCCc2cccc(OC[C@H](CCC(N)=O)NC(=O)[C@@H]3Cc4cccc5c4N3C(=O)[C@@H](NC(=O)c3cc4cc(C(=O)P(=O)(O)O)ccc4[nH]3)CC5)c2)C(C)(C)C)cc1` [Compound I-221], the DC50 under setting [1] is 10 to 100 nM.

Consider `Cc1ncsc1-c1ccc([C@H](C)NC(=O)[C@@H]2C[C@@H](O)CN2C(=O)[C@@H](NC(=O)CCCCCc2ccc(F)c(OC[C@H](CCC(N)=O)NC(=O)[C@@H]3Cc4cccc5c4N3C(=O)[C@@H](NC(=O)c3cc4cc(C(=O)P(=O)(O)O)ccc4[nH]3)CC5)c2)C(C)(C)C)cc1` [Compound I-207], for which the DC50 under setting [1] is 100 to 1000 nM.

In the case of `Cc1ncsc1-c1ccc([C@H](C)NC(=O)[C@@H]2C[C@@H](O)CN2C(=O)[C@@H](NC(=O)CCCCCc2ccc(Cl)c(OC[C@H](CCC(N)=O)NC(=O)[C@@H]3Cc4cccc5c4N3C(=O)[C@@H](NC(=O)c3cc4cc(C(=O)P(=O)(O)O)ccc4[nH]3)CC5)c2)C(C)(C)C)cc1` [Compound I-200], under setting [1], the DC50 was more than 1000 nM.

With `Cc1ncsc1-c1ccc([C@H](C)NC(=O)[C@@H]2C[C@@H](O)CN2C(=O)[C@@H](NC(=O)CCCCc2ccc(COC[C@H](CCC(N)=O)NC(=O)[C@@H]3Cc4cccc5c4N3C(=O)[C@@H](NC(=O)c3cc4cc(C(=O)P(=O)(O)O)ccc4[nH]3)CC5)cc2)C(C)(C)C)cc1` [Compound I-141, diammonium 2-[[(2S,11S)-2-[[(2S)-4-carbamoyl-1-[[4-(4-[[(2S)-1-[(2S,4R)-4-hydroxy-2-[[(1S)-1-[4-(4-methyl-1,3-thiazol-5-yl)phenyl]ethyl]carbamoyl]pyrrolidin-l-yl]-3,3-dimethyl-1-oxobutan-2-yl]carbamoyl]butyl)phenyl]methoxy]butan-2-yl]carbamoyl]-12-oxo-1-azatricyclo[6.4.1.0^[4,13]]trideca-4(13),5,7-trien-11-yl]carbamoyl]-1H-indole-5-carbonylphosphonate], the DC50 under setting [1] fell in the range of 10 to 100 nM.

Regarding `Cc1ncsc1-c1ccc([C@H](C)NC(=O)[C@@H]2C[C@@H](O)CN2C(=O)[C@@H](NC(=O)CCCCCc2cccc(NC(=O)[C@H](CCC(N)=O)NC(=O)[C@@H]3Cc4cccc5c4N3C(=O)[C@@H](NC(=O)c3cc4cc(C(=O)P(=O)(O)O)ccc4[nH]3)CC5)c2)C(C)(C)C)cc1` [Compound I-209], the half-maximal degradation concentration (DC50) under setting [1] was 10 to 100 nM.

For the compound `Cc1ncsc1-c1ccc(CNC(=O)[C@@H]2C[C@@H](O)CN2C(=O)C(NC(=O)CCCCc2ccc(CNC(=O)[C@H](CCC(N)=O)NC(=O)[C@@H]3Cc4cccc5c4N3C(=O)[C@@H](NC(=O)c3cc4cc(C(=O)P(=O)(O)O)ccc4[nH]3)CC5)cc2)C(C)(C)C)cc1` (stereo partly shown) [Compound I-139], the DC50 under setting [1] is more than 1000 nM.

Turning to `Cc1ccc(OC[C@H](CCC(N)=O)NC(=O)[C@@H]2Cc3cccc4c3N2C(=O)[C@@H](NC(=O)c2cc3cc(C(=O)P(=O)(O)O)ccc3[nH]2)CC4)cc1CCCCCC(=O)N[C@H](C(=O)N1C[C@H](O)C[C@H]1C(=O)N[C@@H](C)c1ccc(-c2scnc2C)cc1)C(C)(C)C` [Compound I-212, 2-[[(2S,11S)-2-[[(2S)-4-carbamoyl-1-[3-(5-[[(2S)-1-[(2S,4R)-4-hydroxy-2-[[(1S)-1-[4-(4-methyl-1,3-thiazol-5-yl)phenyl]ethyl]carbamoyl]pyrrolidin-1-yl]-3,3-dimethyl-1-oxobutan-2-yl]carbamoyl]pentyl)-4-methylphenoxy]butan-2-yl]carbamoyl]-12-oxo-1-azatricyclo[6.4.1.0^[4,13]]trideca-4(13),5,7-trien-11-yl]carbamoyl]-1H-indole-5-carbonylphosphonic acid], the 50% degradation concentration (DC50) under setting [1] fell in the range of 10 to 100 nM.

For the compound `Cc1ncsc1-c1ccc([C@H](C)NC(=O)[C@@H]2C[C@@H](O)CN2C(=O)[C@@H](NC(=O)CCCCCc2ccnc([C@H](CCC(N)=O)NC(=O)[C@@H]3Cc4cccc5c4N3C(=O)[C@@H](NC(=O)c3cc4cc(C(=O)P(=O)(O)O)ccc4[nH]3)CC5)c2)C(C)(C)C)cc1` [Compound I-268, 2-[[(2S,11S)-2-[[(1S)-3-carbamoyl-1-[4-(5-[[(2S)-1-[(2S,4R)-4-hydroxy-2-[[(1S)-1-[4-(4-methyl-1,3-thiazol-5-yl)phenyl]ethyl]carbamoyl]pyrrolidin-1-yl]-3,3-dimethyl-1-oxobutan-2-yl]carbamoyl]pentyl)pyridin-2-yl]propyl]carbamoyl]-12-oxo-1-azatricyclo [6.4.1.0^[4,13]]trideca-4(13),5,7-trien-11-yl]carbamoyl]-1H-indole-5-carbonylphosphonic acid], under setting [1], the DC50 lay within 100 to 1000 nM.

On to `Cc1ncsc1-c1ccc(C2(NC(=O)[C@@H]3C[C@@H](O)CN3C(=O)[C@@H](NC(=O)CCCCCc3cccc(OC[C@H](CCC(N)=O)NC(=O)[C@@H]4Cc5cccc6c5N4C(=O)[C@@H](NC(=O)c4cc5cc(C(=O)P(=O)(O)O)ccc5[nH]4)CC6)c3)C(C)(C)C)CC2)cc1` [Compound I-206, diammonium 2-[[(2S,11S)-2-[[(2S)-4-carbamoyl-1-[3-(5-[[(2S)-1-[(2S,4R)-4-hydroxy-2-([1-[4-[4-methyl-1,3-thiazo1-5-yl)phenyl]cyclopropyl]carbamoyl)pyrrolidin-1-yl]-3,3-dimethyl-1-oxobutan-2-yl]carbamoyl]pentyl)phenoxy]butan-2-yl]carbamoyl]-12-oxo-1-azatricyclo[6.4.1.0^[4,13]]trideca-4(13),5,7-trien-11-yl]carbamoyl]-1H-indole-5-carbonylphosphonate], for which, under setting [1], the DC50 fell in the range of 10 to 100 nM.

Turning to `Cc1ncsc1-c1ccc(CNC(=O)[C@@H]2C[C@@H](O)CN2C(=O)[C@@H](NC(=O)CCCCCc2cccc(OC[C@H](CCC(N)=O)NC(=O)[C@@H]3Cc4cccc5c4N3C(=O)[C@@H](NC(=O)c3cc4cc(C(=O)P(=O)(O)O)ccc4[nH]3)CC5)c2)C(C)(C)C)cc1` [Compound I-164, 2-[[(2S,11S)-2-[[(2S)-4-carbamoyl-1-[3-(5-[[(2S)-1-[(2S,4R)-4-hydroxy-2-([[4-(4-methyl-1,3-thiazol-5-yl)phenyl]methyl]carbamoyl)pyrrolidin-1-yl]-3,3-dimethyl-1-oxobutan-2-yl]carbamoyl]pentyl)phenoxy]butan-2-yl]carbamoyl]-12-oxo-1-azatricyclo[6.4.1.0^[4,13]]trideca-4(13),5,7-trien-11-yl]carbamoyl]-1H-indole-5-carbonylphosphonic acid], the DC50 under setting [1] was in the range of 10 to 100 nM.

Consider `Cc1ncsc1-c1ccc(CNC(=O)[C@@H]2C[C@@H](O)CN2C(=O)[C@@H](NC(=O)CC2CC(Cc3ccc(CO[C@H](C)[C@H](CCC(N)=O)NC(=O)[C@@H]4Cc5cccc6c5N4C(=O)[C@@H](NC(=O)c4cc5cc(C(=O)P(=O)(O)O)ccc5[nH]4)CC6)cc3)C2)C(C)(C)C)cc1` (stereo partly shown) [Compound I-163], for which, under setting [1], the half-maximal degradation concentration (DC50) was more than 1000 nM.
